Measurements: patent US20090099158A1, “TETRAHYDROISOQUINOLINE COMPOUNDS AS MODULATORS OF THE HISTAMINE H3 RECEPTOR” (priority 2007, published 2009)

target: T1, cloned human H3 receptors (Homo sapiens, UniProt Q9Y5N1); test: H3 Receptor Binding (Human); conditions: cloned human H3 receptors stably expressed in SK-N-MC cells; average of the results obtained
T1 construct: expressed in transfected cells; host or cells: SK-N-MC cells
Experimental: Binding of compounds to the cloned human H3 receptors, stably expressed in SK-N-MC cells, was performed as described by Barbier, A. J. et al. (Br. J. Pharmacol. 2004, 143(5), 649-661). Data for compounds tested in this assay are presented in Table 1 as an average of the results obtained.

T1 sequence (Q9Y5N1 whole entry): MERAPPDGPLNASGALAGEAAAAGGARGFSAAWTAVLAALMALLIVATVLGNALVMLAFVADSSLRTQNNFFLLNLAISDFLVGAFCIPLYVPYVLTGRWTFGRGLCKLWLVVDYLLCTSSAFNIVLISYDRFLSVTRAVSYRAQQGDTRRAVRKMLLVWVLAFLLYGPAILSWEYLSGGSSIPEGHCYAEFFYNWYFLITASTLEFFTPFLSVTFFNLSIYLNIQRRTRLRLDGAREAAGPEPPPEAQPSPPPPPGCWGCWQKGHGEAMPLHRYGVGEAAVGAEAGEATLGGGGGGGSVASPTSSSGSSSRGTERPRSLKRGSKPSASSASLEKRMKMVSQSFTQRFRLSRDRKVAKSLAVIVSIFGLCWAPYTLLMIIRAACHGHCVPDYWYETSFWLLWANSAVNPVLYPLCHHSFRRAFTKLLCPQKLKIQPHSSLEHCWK

Row | Ki [nM] | Structure (SMILES)
1 | 45 | O=C(C1CCCCC1)N1CCc2cc(CN3CCCCC3)ccc2C1 [Example 166, Cyclohexyl-(6-piperidin-1-ylmethyl-3,4-dihydro-1H-isoquinolin-2-yl)-methanone]
2 | 1 | O=C(c1ccc2c(c1)CCN(C(=O)c1ccc(F)c(Cl)c1)C2)N1CCCN(C2CCC2)CC1 [Example 145, (3-Chloro-4-fluoro-phenyl)-[6-(4-cyclobutyl-[1,4]diazepane-1-carbonyl)-3,4-dihydro-1H-isoquinolin-2-yl]-methanone]
3 | 5200 | O=C(c1ccc2c(c1)CCN(C(=O)C1CCCCC1)C2)N1CCN(CC2CCCO2)CC1 (centres unmarked) [Example 151, Cyclohexyl-{6-[4-(tetrahydro-furan-2-ylmethyl)-piperazine-1-carbonyl]-3,4-dihydro-1H-isoquinolin-2-yl}-methanone]
4 | 1 | COC1CCCC(C(=O)N2CCc3cc(C(=O)N4CCCN(C5CCC5)CC4)ccc3C2)C1 (centres unmarked) [Example 146, [6-(4-Cyclobutyl-[1,4]diazepane-1-carbonyl)-3,4-dihydro-1H-isoquinolin-2-yl]-(3-methoxy-cyclohexyl)-methanone]
5 | 441 | CN(C)C1CCN(C(=O)c2ccc3c(c2)CCN(C(=O)C2CCCCC2)C3)CC1 [Example 154, Cyclohexyl-[6-(4-dimethylamino-piperidine-1-carbonyl)-3,4-dihydro-1H-isoquinolin-2-yl]-methanone]
6 | 84 | O=C(c1ccc2c(c1)CCN(C(=O)C1CCCCC1)C2)N1CCN(C2CCCCC2)CC1 [Example 160, Cyclohexyl-[6-(4-cyclohexyl-piperazine-1-carbonyl)-3,4-dihydro-1H-isoquinolin-2-yl]-methanone]
7 | 78 | CC(C)(C)c1ccc(C(=O)N2CCc3cc(C(=O)N4CCN(C5CCC5)CC4)ccc3C2)cc1 [Example 131, [2-(4-tert-Butyl-benzoyl)-1,2,3,4-tetrahydro-isoquinolin-6-yl]-(4-cyclobutyl-piperazin-1-yl)-methanone]
8 | 1 | O=C(c1ccc2c(c1)CCN(C1CCCC1)C2)N1CCN2CCCCC2C1 (centres unmarked) [Example 192, (2-Cyclopentyl-1,2,3,4-tetrahydro-isoquinolin-6-yl)-(octahydro-pyrido[1,2-a]pyrazin-2-yl)-methanone]
9 | 269 | O=C(C1CCCCC1)N1CCc2cc(CN3CCC[C@H]3CN3CCCC3)ccc2C1 [Example 169, Cyclohexyl-[6-(2-pyrrolidin-1-ylmethyl-pyrrolidin-1-ylmethyl)-3,4-dihydro-1H-isoquinolin-2-yl]-methanone]
10 | 110 | O=C(c1ccc2c(c1)CCN(C(=O)C1CCCCC1)C2)N1CCC(N2CCCCC2)CC1 [Example 157, [6-([1,4′]Bipiperidinyl-1′-carbonyl)-3,4-dihydro-1H-isoquinolin-2-yl]-cyclohexyl-methanone]
11 | 10 | O=C(Cc1ccc(F)cc1)N1CCc2cc(C(=O)N3CCN(C4CCC4)CC3)ccc2C1 [Example 130, 1-[6-(4-Cyclobutyl-piperazine-1-carbonyl)-3,4-dihydro-1H-isoquinolin-2-yl]-2-(4-fluoro-phenyl)-ethanone]

Second part, the molecule before the results:

Row | Structure (SMILES) | Ki [nM]
12 | N#Cc1ccc(C(=O)N2CCc3cc(C(=O)N4CCC[C@H]4CN4CCCC4)ccc3C2)cc1 [Example 53, (S)-4-[6-(2-Pyrrolidin-1-ylmethyl-pyrrolidine-1-carbonyl)-3,4-dihydro-1H-isoquinoline-2-carbonyl]-benzonitrile] | 9
13 | O=C(c1ccc2c(c1)CN(C(=O)C1CCCCC1)CC2)N1CCCN(C2CCC2)CC1 [Example 38, [7-(4-Cyclobutyl-[1,4]diazepane-1-carbonyl)-3,4-dihydro-1H-isoquinolin-2-yl]-cyclohexyl-methanone] | 1
14 | O=C(c1ccc2c(c1)CCN(C(=O)c1cccc([N+](=O)[O-])c1)C2)N1CCN(C2CCC2)CC1 [Example 121, [6-(4-Cyclobutyl-piperazine-1-carbonyl)-3,4-dihydro-1H-isoquinolin-2-yl]-(3-nitro-phenyl)-methanone] | 5
15 | CC(C)(C)c1ccc(C(=O)N2CCc3cc(C(=O)N4CCC[C@H]4CN4CCCC4)ccc3C2)cc1 [Example 49, (S)-(4-tert-Butyl-phenyl)-[6-(2-pyrrolidin-1-ylmethyl-pyrrolidine-1-carbonyl)-3,4-dihydro-1H-isoquinolin-2-yl]-methanone] | 46
16 | O=C(c1ccc(F)cc1)N1CCc2cc(C(=O)N3CCC[C@H]3CN3CCCC3)ccc2C1 [Example 58, (S)-(4-Fluoro-phenyl)-[6-(2-pyrrolidin-1-ylmethyl-pyrrolidine-1-carbonyl)-3,4-dihydro-1H-isoquinolin-2-yl]-methanone] | 17
17 | O=C(Cc1ccccc1)N1CCc2cc(C(=O)N3CCN(C4CCC4)CC3)ccc2C1 [Example 129, 1-[6-(4-Cyclobutyl-piperazine-1-carbonyl)-3,4-dihydro-1H-isoquinolin-2-yl]-2-phenyl-ethanone] | 18
18 | CC(C)(C)C(=O)N1CCc2cc(C(=O)N3CCC[C@H]3CN3CCCC3)ccc2C1 [Example 47, (S)-2,2-Dimethyl-1-[6-(2-pyrrolidin-1-ylmethyl-pyrrolidine-1-carbonyl)-3,4-dihydro-1H-isoquinolin-2-yl]-propan-1-one] | 16
19 | COc1cccc(C(=O)N2CCc3cc(C(=O)N4CCN(C5CCCCC5)CC4)ccc3C2)c1 [Example 79, (4-Cyclohexyl-piperazin-1-yl)-[2-(3-methoxy-benzoyl)-1,2,3,4-tetrahydro-isoquinolin-6-yl]-methanone] | 169
20 | N#Cc1cccc(C(=O)N2CCc3cc(C(=O)N4CCN5CCCCC5C4)ccc3C2)c1 (centres unmarked) [Example 94, 3-[6-(Octahydro-pyrido[1,2-a]pyrazine-2-carbonyl)-3,4-dihydro-1H-isoquinoline-2-carbonyl]-benzonitrile] | 22
21 | O=C(c1ccc2c(c1)CCN(C(=O)c1ccc(F)c(O)c1)C2)N1CCN(C2CCC2)CC1 [Example 124, (4-Cyclobutyl-piperazin-1-yl)-[2-(4-fluoro-3-hydroxy-benzoyl)-1,2,34-tetrahydro-isoquinolin-6-yl]-methanone] | 24
22 | COc1ccc(C(=O)N2CCc3cc(C(=O)N4CCN(C5CCC5)CC4)ccc3C2)cc1 [Example 112, (4-Cyclobutyl-piperazin-1-yl)-[2-(4-methoxy-benzoyl)-1,2,3,4-tetrahydro-isoquinolin-6-yl]-methanone] | 20
23 | O=C(c1ccc2c(c1)CCNC2)N1CCN(C2CCCCC2)CC1 [Example 9, (4-Cyclohexyl-piperazin-1-yl)-(1,2,3,4-tetrahydro-isoquinolin-6-yl)-methanone] | 14
24 | O=C(c1ccc2c(c1)CCN(C(=O)c1ccc(Cl)cc1)C2)N1CCN(C2CCC2)CC1 [Example 105, [2-(4-Chloro-benzoyl)-1,2,3,4-tetrahydro-isoquinolin-6-yl]-(4-cyclobutyl-piperazin-1-yl)-methanone] | 16
25 | O=C(c1ccc2c(c1)CCN(C(=O)c1ccccc1Cl)C2)N1CCN(C2CCCC2)CC1 [Example 68, [2-(2-Chloro-benzoyl)-1,2,3,4-tetrahydro-isoquinolin-6-yl]-(4-cyclopentyl-piperazin-1-yl)-methanone] | 32
26 | O=C(c1ccc2c(c1)CCN(C(=O)c1ccsc1)C2)N1CCN(C2CCC2)CC1 [Example 115, (4-Cyclobutyl-piperazin-1-yl)-[2-(thiophene-3-carbonyl)-1,2,3,4-tetrahydro-isoquinolin-6-yl]-methanone] | 11
27 | O=C(c1cccc(F)c1)N1CCc2cc(C(=O)N3CCC[C@H]3CN3CCCC3)ccc2C1 [Example 57, (S)-(3-Fluoro-phenyl)-[6-(2-pyrrolidin-1-ylmethyl-pyrrolidine-1-carbonyl)-3,4-dihydro-1H-isoquinolin-2-yl]-methanone] | 14
28 | CC(C)N1CCN(C(=O)c2ccc3c(c2)CCN(C(=O)c2ccc(Cl)cc2)C3)CC1 [Example 110, [2-(4-Chloro-benzoyl)-1,2,3,4-tetrahydro-isoquinolin-6-yl]-(4-isopropyl-piperazin-1-yl)-methanone] | 47
29 | CC(C)(C)OC(=O)N1CCc2cc(C(=O)N3CCN(C4CCCC4)CC3)ccc2C1 [Example 2, 6-(4-Cyclopentyl-piperazine-1-carbonyl)-3,4-dihydro-1H-isoquinoline-2-carboxylic acid tert-butyl ester] | 230
30 | O=C(c1ccc2c(c1)CCNC2)N1CCN(C2CCCC2)CC1 [Example 8, (4-Cyclopentyl-piperazin-1-yl)-(1,2,3,4-tetrahydro-isoquinolin-6-yl)-methanone] | 11
31 | O=C(c1ccccc1)N1CCc2cc(C(=O)N3CCC[C@H]3CN3CCCC3)ccc2C1 [Example 48, (S)-Phenyl-[6-(2-pyrrolidin-1-ylmethyl-pyrrolidine-1-carbonyl)-3,4-dihydro-1H-isoquinolin-2-yl]-methanone] | 18
32 | O=C(c1ccc2c(c1)CCN(C(=O)c1ccccc1)C2)N1CCN(C2CCCCC2)CC1 [Example 85, (2-Benzoyl-1,2,3,4-tetrahydro-isoquinolin-6-yl)-(4-cyclohexyl-piperazin-1-yl)-methanone] | 118
33 | N#Cc1ccc(C(=O)N2CCc3cc(C(=O)N4CCN(C5CCCCC5)CC4)ccc3C2)cc1 [Example 81, 4-[6-(4-Cyclohexyl-piperazine-1-carbonyl)-3,4-dihydro-1H-isoquinoline-2-carbonyl]-benzonitrile] | 65
34 | O=C(c1ccc2c(c1)CCN(C(=O)c1ccccc1)C2)N1CCN(C2CCCC2)CC1 [Example 65, (2-Benzoyl-1,2,3,4-tetrahydro-isoquinolin-6-yl)-(4-cyclopentyl-piperazin-1-yl)-methanone] | 100
35 | O=C(c1ccc(Cl)cc1)N1CCc2cc(C(=O)N3CCN4CCCCC4C3)ccc2C1 (centres unmarked) [Example 91, [2-(4-Chloro-benzoyl)-1,2,3,4-tetrahydro-isoquinolin-6-yl]-(octahydro-pyrido[1,2-a]pyrazin-2-yl)-methanone] | 25
